Measurements published in patent US7897773B2, “Urea derivatives of tropane, their preparation and their therapeutic application” (Sanofi-Aventis, priority 2006, dated 2011).
“And” between values parts separate entries of the source, which are not always exact repeats. Equal entries are not always repeated. Structures can show the parent of a compound that is named as a salt. Where two headings read alike, the source gives them in different places.

Key:
11beta-HSD1 enzyme = molecular target: T1, 11beta-HSD1 enzyme (Homo sapiens, UniProt P28845); assay: SPA (Scintillation Proximity Assay) of 11beta-HSD1 inhibition, 384 well format; assay type: biochemical
T1 construct: made in house; host or cells: Saccharomyces cerevisiae
T1 sequence (P28845 whole entry, species assumed): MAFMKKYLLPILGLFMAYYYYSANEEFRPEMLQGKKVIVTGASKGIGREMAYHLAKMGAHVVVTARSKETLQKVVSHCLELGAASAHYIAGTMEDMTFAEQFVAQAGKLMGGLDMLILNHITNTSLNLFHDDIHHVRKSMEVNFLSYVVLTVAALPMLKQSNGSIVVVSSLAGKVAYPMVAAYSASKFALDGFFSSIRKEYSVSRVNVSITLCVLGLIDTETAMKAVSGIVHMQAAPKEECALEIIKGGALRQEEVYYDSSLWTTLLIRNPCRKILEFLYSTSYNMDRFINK
Method: The compounds according to the invention were the subject of pharmacological tests for determining their inhibitory activity on the 11beta-HSD1 enzyme which is an enzyme involved in lipid metabolism or glucose metabolism.
These tests consisted in measuring the in vitro inhibitory activity of the compounds of the invention by virtue of an SPA (Scintillation Proximity Assay) in 384 well format. The recombinant 11beta-HSD1 protein was produced in the yeast S. cerevisiae. The reaction was carried out by incubating the enzyme in the presence of ^3H-cortisone and NADPH, in the absence or in the presence of an increasing concentration of inhibitor. SPA beads coupled to an anti-mouse antibody, pre-incubated with an anti-cortisol antibody, made it possible to measure the amount of cortisol formed during the course of the reaction.
The inhibitory activity with respect to the 11beta-HSD1 enzyme is given by the concentration which inhibits 50% of the activity of 11beta-HSD1 (IC50).

11βHSD1 in the eyes = molecular target: T2, 11βHSD1 in the eyes (Homo sapiens, UniProt P28845); conditions: normal volunteers; after seven days of treatment; cited from earlier work
T2 construct: The functional activity of 11βHSD1 in the eyes has been evaluated by studying the action of carbenoxolone in normal volunteers; host or cells: ocular tissue of human volunteers (in vivo)
T2 sequence (P28845 whole entry): as the sequence (P28845 whole entry, species assumed) above

[1] = recombinant 11beta-HSD1 produced in yeast S. cerevisiae, 3H-cortisone and NADPH, read-out: concentration which inhibits 50% of the activity of 11beta-HSD1 (IC50)

**Q.** Which melting point does the source give for O=C(N1CCCc2ccccc21)N1C2CCC1CC(c1ccc(F)nc1)C2 (centres unmarked) (as salt: HCl) here?
**A.** 98 to 99 °C

**Q.** Which melting point does the source give for O=C(N1CCCc2ccccc21)N1C2CCC1CC(c1cccnc1)C2 (centres unmarked) (as salt: HCl) [Compound 4, 1-[(3-pyridin-3-yl-8-azabicyclo[3.2.1]oct-8-yl)carbonyl]-1,2,3,4-tetrahydroquinoline Hydrochloride] here?
**A.** 218 to 220 °C and 218 to 222 °C

**Q.** For O=C(N1CCCc2ccccc21)N1C2CCC1CC(c1cccnc1)C2 (centres unmarked) [Compound 4, 1-[(3-pyridin-3-yl-8-azabicyclo[3.2.1]oct-8-yl)carbonyl]-1,2,3,4-tetrahydroquinoline Hydrochloride], which IC50 (11beta-HSD1 enzyme) is on record?
**A.** 19 nM

**Q.** For O=C(N1CCCc2ccccc21)N1C2CCC1CC(c1ccccc1)C2 (centres unmarked) [Compound 7, (3,4-dihydro-2H-quinolin-1-yl)-(3-phenyl-8-azabicyclo-[3.2.1]oct-8-yl)methanone], which melting point is on record?
**A.** 133 to 134 °C

**Q.** And the IC50 (11beta-HSD1 enzyme; [1])?
**A.** 4 nM

**Q.** For O=C(N1CCCc2ccccc21)N1C2C=C(c3cccnc3F)CC1CC2 (centres unmarked) [Compound 13, (3,4-dihydro-2H-quinolin-1-yl)-[3-(2-fluoropyridin-3-yl)-8-azabicyclo[3.2.1]oct-2-en-8-yl]methanone], which IC50 (11beta-HSD1 enzyme) is on record?
**A.** 122 nM

**Q.** Which IC50 (11beta-HSD1 enzyme; [1]) does the source give for O=C(N1CCCc2ccccc21)N1C2C=C(c3cccc4[nH]ccc34)CC1CC2 (centres unmarked) [Compound 28, (3,4-dihydro-2H-quinolin-1-yl)-[3-(1H-indol-4-yl)-8-azabicyclo[3.2.1]oct-2-en-8-yl]methanone] here?
**A.** 190 nM

**Q.** For CC1(C)[C@@H](OC(=O)CCC(=O)O)CC[C@]2(C)[C@H]3C(=O)C=C4[C@@H]5C[C@@](C)(C(=O)O)CC[C@]5(C)CC[C@@]4(C)[C@]3(C)CC[C@@H]12 [carbenoxolone], which “IOP is reduced by” value (11βHSD1 in the eyes) is on record?
**A.** 18%
